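Briefly, cells in 96-well plates were exposed to five compound concentrations for 48 h, and endpoints were estimated by linear interpolation. GI50 is the concentration that inhibits growth by half. TGI is the concentration that stops growth completely.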
Columns and labels:
Assay in all cases: DTP human tumour cell line panel, 48 h
786-0 renal = system: 786-0 renal
ACHN renal = system: ACHN renal
HCC-2998 colon = system: HCC-2998 colon
KM12 colon = system: KM12 colon
M14 melanoma = system: M14 melanoma
MALME-3M melanoma = system: MALME-3M melanoma
MOLT-4 leukemia = system: MOLT-4 leukemia
NCI-H460 lung = system: NCI-H460 lung
SF-295 CNS = system: SF-295 CNS
SK-OV-3 ovarian = system: SK-OV-3 ovarian

Row | Structure (SMILES) | GI50 (786-0 renal) | TGI (786-0 renal) | GI50 (ACHN renal) | TGI (ACHN renal) | GI50 (HCC-2998 colon) | TGI (HCC-2998 colon) | GI50 (KM12 colon) | TGI (KM12 colon) | GI50 (M14 melanoma) | TGI (M14 melanoma) | GI50 (MALME-3M melanoma) | TGI (MALME-3M melanoma) | GI50 (MOLT-4 leukemia) | TGI (MOLT-4 leukemia) | GI50 (NCI-H460 lung) | TGI (NCI-H460 lung) | GI50 (SF-295 CNS) | TGI (SF-295 CNS) | GI50 (SK-OV-3 ovarian) | TGI (SK-OV-3 ovarian)
1 | CCC[n+]1cc2cc(OC)c(OC)cc2c2c1-c1cc3c(cc1C2)OCO3 | 1.11 µM | 12.3 µM | 9.45 µM | 36.7 µM | 3.99 µM | 14.9 µM | 2.12 µM | 7.03 µM | 7.64 µM | 22 µM | 1.65 µM | 4.01 µM | 1.92 µM | 11.4 µM | 2.98 µM | 11.3 µM | 8.1 µM | 26.6 µM | 25.6 µM | 52.3 µM
2 | CN1C(=O)N(C)C2C1NN=c1s/c(=C\c3ccc(F)cc3)c(=O)n12 (stereo not given) | 7.55 µM | > 100 µM | 4.39 µM | > 100 µM | 13.4 µM | > 100 µM | 1.65 µM | > 100 µM | 2.24 µM | > 100 µM | 3.17 µM | > 100 µM | 3.07 µM | > 100 µM | 2.77 µM | > 100 µM | 2.45 µM | > 100 µM | 3.57 µM | > 100 µM
3 | Cc1[nH]nc(C(=O)n2nc(N)c3ccccc32)c1[N+](=O)[O-] | > 100 µM | > 100 µM | > 100 µM | > 100 µM | > 100 µM | > 100 µM | > 100 µM | > 100 µM | > 100 µM | > 100 µM | > 100 µM | > 100 µM | > 89.4 µM | > 100 µM | > 100 µM | > 100 µM | > 100 µM | > 100 µM | > 100 µM | > 100 µM
4 | COC(=O)[C@]12CCC(C)[C@H](C)[C@H]1C1=CCC3[C@@]4(C)CC[C@H](OC(C)=O)C(C)(C)C4CC[C@@]3(C)C1(C)C(O)C2 (stereo not given in full) | – | > 100 µM | – | > 100 µM | – | > 100 µM | – | > 100 µM | – | > 100 µM | – | > 100 µM | – | > 100 µM | – | > 100 µM | – | > 100 µM | – | > 100 µM
5 | NC(N)=NCCC1OC(=O)C2=C1c1c(O)ccc3nccc(c13)O2 (stereo not given) | > 100 µM | > 100 µM | > 100 µM | > 100 µM | > 100 µM | > 100 µM | > 100 µM | > 100 µM | > 100 µM | > 100 µM | > 100 µM | > 100 µM | > 100 µM | > 100 µM | > 100 µM | > 100 µM | > 100 µM | > 100 µM | > 100 µM | > 100 µM
6 | Cc1cc2c(cc1C)N(C(=O)CCl)CCN2C(=O)CCl | 0.657 µM | 1.58 µM | 0.638 µM | 2.08 µM | 1.78 µM | 3.3 µM | 1.72 µM | 3.31 µM | 1.08 µM | 2.52 µM | 1.57 µM | 4.5 µM | 0.367 µM | 1.74 µM | 1.7 µM | 3.33 µM | 1.96 µM | 4.13 µM | 1.9 µM | 3.98 µM
7 | C/C(CCc1ccccc1)=N\NC(N)=S | – | > 100 µM | – | > 100 µM | – | > 100 µM | – | > 100 µM | – | > 100 µM | – | > 100 µM | – | > 100 µM | – | > 100 µM | – | > 100 µM | – | > 100 µM
8 | COc1ccc(/C=C2\CCCC(C(NO)c3ccc(OC)cc3)C2=NO)cc1 (stereo not given) | – | > 100 µM | – | > 100 µM | – | > 100 µM | – | > 100 µM | – | > 100 µM | – | > 100 µM | – | 80.5 µM | – | > 100 µM | – | > 100 µM | – | > 100 µM
9 | COC1C2C=CC(C2)[C@H]1[N+](=O)[O-] (stereo not given in full) | – | > 100 µM | – | > 100 µM | – | > 100 µM | – | > 100 µM | – | > 100 µM | – | > 100 µM | – | > 100 µM | – | > 100 µM | – | > 100 µM | – | > 100 µM
10 | CC1=C(C(=O)Nc2cccc(Cl)c2)C(c2ccccc2F)C(C(=O)Nc2cccc(Cl)c2)=C(C)N1 | – | 32.2 µM | – | 46 µM | – | 21 µM | – | 21 µM | – | 18 µM | – | 31.8 µM | – | 14.7 µM | – | 24.1 µM | – | 36.8 µM | – | 55.5 µM
11 | COC(=O)C(CC(=O)Nc1ccc(C)cc1)C(=O)C(=O)Nc1ccccc1C(C)C (stereo not given) | – | > 100 µM | – | > 100 µM | – | > 100 µM | – | > 100 µM | – | > 100 µM | – | > 100 µM | – | > 100 µM | – | > 100 µM | – | > 100 µM | – | > 100 µM
12 | Cc1sc2nc3c4ccccc4c(NCCCN(C)C)nn3c(=O)c2c1C | 9.14 µM | 21.9 µM | 6.95 µM | 20.4 µM | 7.88 µM | 20.7 µM | 4.84 µM | 17.7 µM | 1.77 µM | 3.22 µM | 1.97 µM | 4.96 µM | 0.782 µM | 3.38 µM | 1.08 µM | 5.35 µM | 8.25 µM | 26.5 µM | 13.4 µM | 26.3 µM
13 | O=C1C(c2ccccc2)=[N+]([O-])c2ccccc21 | – | 34.1 µM | – | 33.6 µM | – | 38.8 µM | – | 55.2 µM | – | 27 µM | – | 38.5 µM | – | 47.2 µM | – | 32.7 µM | – | 32.6 µM | – | 31.4 µM
14 | CCn1c2ccc(O)cc2c2c(C)c3c[n+](C)ccc3c(C)c21 | 0.52 µM | > 100 µM | 8.85 µM | > 100 µM | 3.9 µM | 23.4 µM | 2 µM | 23.7 µM | 4.4 µM | 29.2 µM | 1.32 µM | 7.12 µM | 2.06 µM | 95.1 µM | 0.752 µM | 11 µM | 0.748 µM | 31.4 µM | 7.41 µM | 83.8 µM
15 | NC(=O)c1cc2c3ccccc3ccn2c1-c1ccccc1 | 0.0775 µM | 13.6 µM | 3.17 µM | 30.5 µM | 0.542 µM | 9.55 µM | 0.0396 µM | 3.88 µM | 0.0706 µM | 17.7 µM | 16.7 µM | 47.9 µM | 0.521 µM | 15.9 µM | 0.042 µM | 10.5 µM | 0.0304 µM | 1.05 µM | 0.0503 µM | 12.7 µM
